Reference: patent US9120808B2 (NABRIVA THERAPEUTICS AG, priority 2009, dated 2015)
Where two headings read alike, the source gives them in different places.

Key:
[1] = biological target: SHV-1 β-lactamase (Klebsiella pneumoniae, UniProt P0AD64); assay: Cell-free β-lactamase inhibition study (nitrocefin hydrolysis); type: biochemical; conditions: 10 min pre-incubation at 37° C., nitrocefin substrate
Protocol: (§1) Cell-Free-β-Lactamase Inhibition Study
(§2) Assays are performed with β-lactamases expressed in the pET system (Novagen, San Diego, Calif.) without signal peptides. They contain an N-terminal hexa-Histidine tag that is used for purification on Ni-NTA (Qiagen, Hilden, Germany). The compounds are prepared as 50 mM stocks in DMSO and diluted into buffer P1 (50 mM phosphate, pH 7) to a final concentration of 10% DMSO. All further dilutions are done in P2 (P1 with 10% DMSO). Enzyme and compound dilutions are pre-incubated for 10 min at 37° C. and the reaction is started with the addition of pre-warmed (37° C.) nitrocefin at a final concentration of […]. […] The initial velocity is determined and IC50 values are calculated using non-linear regression and sigmoidal dose response analysis with the PRISM 4.0 software (Graphpad Software Inc., San Diego, Calif.).

[2] = biological target: TEM-1 β-lactamase (Escherichia coli, UniProt P62593); assay: as above; type: biochemical; conditions: 10 min pre-incubation at 37° C., nitrocefin substrate
Protocol: as §1, §2

Sequence of SHV-1 β-lactamase (P0AD64 whole entry, looked up): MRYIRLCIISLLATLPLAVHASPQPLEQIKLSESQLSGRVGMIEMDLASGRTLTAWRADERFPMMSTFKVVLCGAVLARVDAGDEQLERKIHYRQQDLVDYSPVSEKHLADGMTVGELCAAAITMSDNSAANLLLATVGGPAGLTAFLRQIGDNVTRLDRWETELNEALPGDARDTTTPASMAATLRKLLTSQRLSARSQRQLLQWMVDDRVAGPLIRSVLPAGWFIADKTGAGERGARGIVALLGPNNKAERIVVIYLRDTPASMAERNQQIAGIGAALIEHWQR
Sequence of TEM-1 β-lactamase (P62593 whole entry, looked up): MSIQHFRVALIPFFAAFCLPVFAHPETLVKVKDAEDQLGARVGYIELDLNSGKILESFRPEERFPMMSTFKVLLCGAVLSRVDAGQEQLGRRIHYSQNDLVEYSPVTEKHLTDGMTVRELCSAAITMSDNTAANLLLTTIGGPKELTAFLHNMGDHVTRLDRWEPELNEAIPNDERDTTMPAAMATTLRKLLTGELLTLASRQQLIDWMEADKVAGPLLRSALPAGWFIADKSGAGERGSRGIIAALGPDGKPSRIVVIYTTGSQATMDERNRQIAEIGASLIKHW

Row | SMILES | IC50 ([1]; SHV-1, read-out: IC50) [µM] | IC50 [2] [µM] | IC50 ([1]; IC50, SHV-1) [µM]
1 | O=CC=C1O[C@@H]2CC(=O)N2C1(C/C=C/c1ccccc1)C(=O)OCc1ccccc1 (single isomer, unassigned) [Example 6] | 3.95 | 2.79 | 
2 | O=CC=C1O[C@@H]2CC(=O)N2C1(CC=CCO)C(=O)OCc1ccccc1 (single isomer, unassigned) [Example 8] |  | 5.64 | 
3 | O=CC=C1O[C@@H]2CC(=O)N2C1(CC=CCO)C(=O)OCc1ccccc1 (single isomer, unassigned) [Example 9] | 1.04 | 0.828 | 
4 | COC(=O)C1(C/C=C/c2ccccc2)C(=CC=O)O[C@@H]2CC(=O)N21 (single isomer, unassigned) [Example 14] | 85.1 | 19.6 | 
5 | COC(=O)C1(C/C=C/c2ccccc2)C(=CC=O)O[C@@H]2CC(=O)N21 (single isomer, unassigned) [Example 15] | 4.43 | 4.27 | 
6 | O=C(O)C=C1O[C@@H]2CC(=O)N2C1(C/C=C/c1ccccc1)C(=O)OCc1ccccc1 (single isomer, unassigned) [Example 27] | 0.624 | 0.426 | 
7 | O=C(O)C=C1O[C@@H]2CC(=O)N2C1(C/C=C/c1ccccc1)C(=O)OCc1ccccc1 (single isomer, unassigned) [Example 28] | 9.32 | 45.7 | 
8 | COC(=O)C1(C/C=C/c2ccccc2)C(=CC(=O)O)O[C@@H]2CC(=O)N21 (single isomer, unassigned) [Example 35] | 2.31 | 1.56 | 
9 | COC(=O)C1(C/C=C/c2ccccc2)C(=CC(=O)O)O[C@@H]2CC(=O)N21 (single isomer, unassigned) [Example 36] | 0.642 | 0.408 | 
10 | O=C1OC(CI)CC1=C1O[C@@H]2CC(=O)N2C1C(=O)OCc1ccccc1 (single isomer, unassigned) [Example 41] | 0.0004 | 0.0002 | 
11 | O=C1OC(CI)CC1=C1O[C@@H]2CC(=O)N2C1C(=O)OCc1ccccc1 (single isomer, unassigned) [Example 42] | 0.0008 | 0.0017 | 
12 | CC1C/C(=C2\O[C@@H]3CC(=O)N3C2C(=O)OCc2ccccc2)C(=O)O1 (single isomer, unassigned) [Example 45] |  | 0.0017 | 0.0034
13 | CC1C/C(=C2\O[C@@H]3CC(=O)N3C2C(=O)OCc2ccccc2)C(=O)O1 (single isomer, unassigned) [Example 46] | 0.0005 | 0.0004 | 
14 | C=CCC(C=O)=C1O[C@@H]2CC(=O)N2C1C(=O)OCc1ccccc1 (stereo partly drawn) [Example 1, (5R)-3-(1-Formyl-but-3-enylidene)-7-oxo-4-oxa-1-aza-bicyclo[3.2.0]heptane-2-carboxylic acid benzyl ester] |  | 0.0666 | 
15 | C=CCC1(C(=O)OCc2ccccc2)C(=CC=O)O[C@@H]2CC(=O)N21 (stereo partly drawn) [Example 2, (5R)-2-Allyl-7-oxo-3-[2-oxo-ethylidene]-4-oxa-1-aza-bicyclo[3.2.0]heptane-2-carboxylic acid benzyl ester] |  | 0.945 | 
16 | C=CCC(C=O)=C1O[C@@H]2CC(=O)N2C1(CC=C)C(=O)OCc1ccccc1 (stereo partly drawn) [Example 3, (5R)-2-Allyl-3-[1-formyl-but-3-enylidene]-7-oxo-4-oxa-1-aza-bicyclo[3.2.0]heptane-2-carboxylic acid benzyl ester] |  | 8.39 | 
17 | O=CC(C/C=C/c1ccccc1)=C1O[C@@H]2CC(=O)N2C1C(=O)OCc1ccccc1 (stereo partly drawn) [Example 4, (5R)-3-[1-Formyl-4-phenyl-but-3-enylidene]-7-oxo-4-oxa-1-aza-bicyclo[3.2.0]heptane-2-carboxylic acid benzyl ester] |  | 0.089 | 
18 | O=CC=C1O[C@@H]2CC(=O)N2C1(C/C=C/c1ccccc1)C(=O)OCc1ccccc1 (stereo partly drawn) [Example 5, (5R)-7-oxo-3-[2-oxo-ethylidene]-2-(3-phenyl-allyl)-4-oxa-1-aza-bicyclo[3.2.0]heptane-2-carboxylic acid benzyl ester] | 7.14 | 4.92 | 
19 | O=CC(CC=CCO)=C1O[C@@H]2CC(=O)N2C1C(=O)OCc1ccccc1 (stereo partly drawn) [Example 7, (5R)-3-[1-Formyl-5-hydroxy-pent-3-enylidene]-7-oxo-4-oxa-1-aza-bicyclo[3.2.0]heptane-2-carboxylic acid benzyl ester] |  | 0.0784 | 0.217
20 | CC(=O)OCC=CCC(C=O)=C1O[C@@H]2CC(=O)N2C1C(=O)OCc1ccccc1 (stereo partly drawn) [Example 10, (5R)-3-[5-Acetoxy-1-formyl-pent-3-enylidene]-7-oxo-4-oxa-1-aza-bicyclo[3.2.0]heptane-2-carboxylic acid benzyl ester] |  | 0.14 | 
21 | CC(=O)OCC=CCC1(C(=O)OCc2ccccc2)C(=CC=O)O[C@@H]2CC(=O)N21 (stereo partly drawn) [Example 11, (5R)-2-(4-Acetoxy-but-2-enyl)-7-oxo-3-[2-oxo-ethylidene]-4-oxa-1-aza-bicyclo[3.2.0]heptane-2-carboxylic acid benzyl ester] |  | 7.31 | 
22 | CC(=O)OCC=CCC1(C(=O)OCc2ccccc2)C(=CC=O)O[C@@H]2CC(=O)N21 (stereo partly drawn) [Example 12, (5R)-2-(4-Acetoxy-but-2-enyl)-7-oxo-3-[2-oxo-ethylidene]-4-oxa-1-aza-bicyclo[3.2.0]heptane-2-carboxylic acid benzyl ester] |  | 5.9 | 
23 | COC(=O)C1C(=C(C=O)C/C=C/c2ccccc2)O[C@@H]2CC(=O)N12 (stereo partly drawn) [Example 13] |  | 0.639 | 
24 | C=CCC(C=O)=C1O[C@@H]2CC(=O)N2C1C(=O)OC (stereo partly drawn) [Example 16, (5R)-3-[1-Formyl-but-3-enylidene]-7-oxo-4-oxa-1-aza-bicyclo[3.2.0]heptane-2-carboxylic acid methyl ester] | 0.0805 | 0.0652 | 
25 | C=CCC1(C(=O)OC)C(=CC=O)O[C@@H]2CC(=O)N21 (stereo partly drawn) [Example 17, (5R)-2-Allyl-7-oxo-3-[2-oxo-ethylidene]-4-oxa-1-aza-bicyclo[3.2.0]heptane-2-carboxylic acid methyl ester] | 21.3 | 13.3 | 
26 | CC(C)(C)C(=O)OCOC(=O)C1C(=C(C=O)C/C=C/c2ccccc2)O[C@@H]2CC(=O)N12 (stereo partly drawn) [Example 18, (5R)-3-[1-Formyl-4-phenyl-but-3-enylidene]-7-oxo-4-oxa-1-aza-bicyclo[3.2.0]heptane-2-carboxylic acid 2,2-dimethyl-propionyloxymethyl ester] | 0.0139 | 0.0271 | 
27 | CC(C)(C)C(=O)OCOC(=O)C1(C/C=C/c2ccccc2)C(=CC=O)O[C@@H]2CC(=O)N21 (stereo partly drawn) [Example 19, (5R)-7-oxo-3-(2-oxo-ethylidene)-2-(3-phenyl-allyl)-4-oxa-1-aza-bicyclo[3.2.0]heptane-2-carboxylic acid 2,2-dimethyl-propionyloxymethyl ester] | 0.617 | 0.871 | 
28 | C=CCC1(C(=O)OCc2ccccc2)/C(=C/CO)O[C@@H]2CC(=O)N21 (stereo partly drawn) [Example 40, (5R)-2-Allyl-3-[2-hydroxy-ethylidene]-7-oxo-4-oxa-1-aza-bicyclo[3.2.0]heptane-2-carboxylic acid benzyl ester] |  | 23.6 | 
29 | CC1CC(=C2O[C@@H]3CC(=O)N3C2C(=O)O)C(=O)O1 (stereo partly drawn) [Example 50, (5R)-3-(5-Methyl-2-oxo-dihydro-furan-3-ylidene)-7-oxo-4-oxa-1-aza-bicyclo[3.2.0]heptane-2-carboxylic acid] |  | 0.0042 | 
30 | COC(=O)C1/C(=C2/CC(CI)OC2=O)O[C@@H]2CC(=O)N12 (stereo partly drawn) [Mixture of Example 43 and Example 44] | 0.0043 |  | 
